# Numbered stars: 1 amine (or outer) side, 2 acyl side, 3 side chain; on linkers, the order of the positions; unused ones are H or OH. Bridge positions count the residues as written; N and C are the ends. Square brackets hold non-standard residues; d marks the D form. Peptide text beside a SMILES is read from it. * marks the point of attachment. C20 diacid = O=C(O)CCCCCCCCCCCCCCCCCCC(=O)*; γGlu = O=C(O)[C@H](CCC(=O)[*:2])N[*:1]; Hyp = O=C(O)[C@@H]1C[C@@H](O)CN1; NMeI = CC[C@H](C)[C@H](NC)C(=O)O; Aad = N[C@@H](CCCC(=O)O)C(=O)O; Orn = NCCC[C@H](N)C(=O)O; Sar = CNCC(=O)O
# How the values were obtained:
# [1] = target: T1, recombinant human calcitonin receptor (hCT-R) (Homo sapiens, UniProt P30988); test: hCT-R cAMP assay (AlphaScreen) in 1321N1 cells; assay type: cell-based; conditions: cAMP formation, 45 min stimulation
# T1 construct: host or cells: human astrocytoma cell line 1321N1
# T1 sequence (P30988 25-474): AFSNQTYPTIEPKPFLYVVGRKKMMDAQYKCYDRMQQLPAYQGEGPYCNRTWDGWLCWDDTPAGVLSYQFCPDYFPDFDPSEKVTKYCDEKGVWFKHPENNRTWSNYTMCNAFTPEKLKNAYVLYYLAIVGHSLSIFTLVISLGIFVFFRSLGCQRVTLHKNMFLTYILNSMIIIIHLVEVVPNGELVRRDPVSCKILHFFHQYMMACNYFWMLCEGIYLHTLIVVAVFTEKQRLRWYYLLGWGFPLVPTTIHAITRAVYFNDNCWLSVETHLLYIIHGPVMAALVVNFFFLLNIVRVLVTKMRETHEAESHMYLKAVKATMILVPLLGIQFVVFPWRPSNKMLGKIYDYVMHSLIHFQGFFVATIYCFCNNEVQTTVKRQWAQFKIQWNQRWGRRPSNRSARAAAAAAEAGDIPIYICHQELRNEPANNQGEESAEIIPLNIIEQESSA
# In short: (§1)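 1321N1 astrocytoma cells expressing recombinant human calcitonin receptor alone or with RAMP3 (AMY3) stimulated 45 min at room temperature with peptide in IBMX-containing buffer. cAMP quantified by AlphaScreen after 1 h bead incubation; EC50 fitted from at least 7 concentrations.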
# [2] = target: T2, recombinant human amylin 3 receptor (hAMYR3) (Homo sapiens, UniProt O60896+P30988); test: hAMYR3 cAMP assay (AlphaScreen) in 1321N1 cells; assay type: cell-based; conditions: cAMP formation, 45 min stimulation
# T2 construct: host or cells: human astrocytoma cell line 1321N1
# T2 sequence (P30988 25-474): T1 sequence (P30988 25-474)
# T2 sequence (O60896 24-148 partner): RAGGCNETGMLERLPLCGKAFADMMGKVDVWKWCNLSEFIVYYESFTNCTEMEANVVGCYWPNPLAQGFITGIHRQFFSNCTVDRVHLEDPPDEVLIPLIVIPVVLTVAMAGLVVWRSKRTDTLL
# In short: as §1
# [3] = Assessment of chemical stability in 40 mM buffers at 40° C. (RP-HPLC); assay type: physicochemical; conditions: 1 mg/mL
# Procedure: Samples of each test peptide were dissolved in acetate buffer pH 4 and phosphate buffer pH 6 and 7 (all buffer 40 mM). The final peptide concentration was 1 mg/mL. Samples were placed in glass vials and incubated at 40° C. The samples were analyzed by RP-HPLC on a C8 column with gradient elution using a trifluoroacetic acid/acetonitrile/water eluent system. The area-percentage (area-%) of the main peak was determined by UV spectroscopy at 220 nm at each sampling time point.
# The % degradation was calculated by subtracting the […].
# The results of the chemical stability assessment after 3 days of incubation time are summarized as % degradation in Table 1 (below).
# The results of the chemical stability assessment after 14 days of incubation time are summarized as % degradation in Table 2 (below).
EC50 [1] [nM],EC50 [2] [nM],"% degradation after 14 days at 40° C. pH4 acetate ([3]; acetate buffer pH 4, 14 days) [%]","% degradation after 14 days at 40° C. pH6 phosphate ([3]; phosphate buffer pH 6, 14 days) [%]","% degradation after 14 days at 40° C. pH7 phosphate ([3]; phosphate buffer pH 7, 14 days) [%]",SMILES
0.114,0.032,,,,"CC[C@H](C)[C@@H](C(=O)N1CCC[C@H]1C(=O)N[C@@H](CO)C(=O)N[C@@H](CO)C(=O)N[C@H](C(=O)N[C@@H](CCC(=O)O)C(=O)N[C@H](C(=O)NCC(=O)N[C@@H](CO)C(=O)N[C@@H](CC(N)=O)C(=O)N[C@H](C(=O)N1C[C@H](O)C[C@H]1C(N)=O)[C@@H](C)O)C(C)C)[C@@H](C)O)N(C)C(=O)[C@H](C)NC(=O)CN(C)C(=O)[C@H](Cc1ccccc1)NC(=O)[C@H](CO)NC(=O)[C@H](CO)NC(=O)[C@H](CCCNC(=N)N)NC(=O)[C@H](CCC(N)=O)NC(=O)[C@H](CC(C)C)NC(=O)[C@H](Cc1ccccc1)NC(=O)[C@H](Cc1c[nH]cn1)NC(=O)[C@H](C)NC(=O)[C@H](CC(C)C)NC(=O)[C@H](CCCNC(=N)N)NC(=O)[C@H](CCC(=O)O)NC(=O)[C@@H](NC(=O)[C@H](C)NC(=O)[C@@H]1CCCNC(=O)C[C@H](NC(=O)[C@H](CCCNC(=N)N)NC(=O)CC[C@H](NC(=O)CCCCCCCCCCCCCCCCCCC(=O)O)C(=O)O)C(=O)NCC(=O)N[C@@H]([C@@H](C)O)C(=O)N[C@@H](C)C(=O)N[C@@H]([C@@H](C)O)C(=O)N1)[C@@H](C)O [Compound 5, [19CD]-isoGlu-RD()GTAT-Orn()-ATERLAHFLQRSSF-Gly(Me)-A-Ile(Me)-PSSTEVGSNT-Hyp-NH2] ({C20 diacid-γGlu}-RDGTAT[Orn]ATERLAHFLQRSSF[Sar]A[NMeI]PSSTEVGSNT[Hyp]-NH2; lactam 2-7)"
0.386,0.108,2.2,<1,2.6,"CC[C@H](C)[C@@H](C(=O)N[C@@H](CC(C)C)C(=O)N[C@@H](CO)C(=O)N[C@@H](CO)C(=O)N[C@H](C(=O)N[C@@H](CCC(=O)O)C(=O)N[C@H](C(=O)NCC(=O)N[C@@H](CO)C(=O)N[C@@H](CC(N)=O)C(=O)N[C@H](C(=O)N1C[C@H](O)C[C@H]1C(N)=O)[C@@H](C)O)C(C)C)[C@@H](C)O)N(C)C(=O)[C@H](C)NC(=O)CN(C)C(=O)[C@H](Cc1ccccc1)NC(=O)[C@H](CO)NC(=O)[C@H](CO)NC(=O)[C@H](CCCNC(=N)N)NC(=O)[C@H](CCC(N)=O)NC(=O)[C@H](CC(C)C)NC(=O)[C@H](Cc1ccccc1)NC(=O)[C@H](Cc1c[nH]cn1)NC(=O)[C@H](C)NC(=O)[C@H](CC(C)C)NC(=O)[C@H](CCCNC(=N)N)NC(=O)[C@H](CCC(=O)O)NC(=O)[C@@H](NC(=O)[C@H](C)NC(=O)[C@@H]1CCCCNC(=O)C[C@H](NC(=O)[C@H](CCCNC(=N)N)NC(=O)CC[C@H](NC(=O)CCCCCCCCCCCCCCCCCCC(=O)O)C(=O)O)C(=O)NCC(=O)N[C@@H]([C@@H](C)O)C(=O)N[C@@H](C)C(=O)N[C@@H](CO)C(=O)N1)[C@@H](C)O [Compound 14, [19CD]-isoGlu-RD()GTASK()ATERLAHFLQRSSF-Gly(Me)-A-Ile(Me)-LSSTEVGSNT-Hyp-NH2] ({C20 diacid-γGlu}-RDGTASKATERLAHFLQRSSF[Sar]A[NMeI]LSSTEVGSNT[Hyp]-NH2; lactam 2-7)"
1.93,0.706,,,,"CC[C@H](C)[C@@H](C(=O)N[C@@H](CC(C)C)C(=O)N[C@@H](CO)C(=O)N[C@@H](CO)C(=O)N[C@H](C(=O)N[C@@H](CCC(=O)O)C(=O)N[C@H](C(=O)NCC(=O)N[C@@H](CO)C(=O)N[C@@H](CC(N)=O)C(=O)N[C@H](C(=O)N1C[C@H](O)C[C@H]1C(N)=O)[C@@H](C)O)C(C)C)[C@@H](C)O)N(C)C(=O)[C@H](C)NC(=O)CN(C)C(=O)[C@H](Cc1ccccc1)NC(=O)[C@@H](NC(=O)[C@@H](NC(=O)[C@H](CCCNC(=N)N)NC(=O)[C@H](CCC(N)=O)NC(=O)[C@H](CC(C)C)NC(=O)[C@H](Cc1ccccc1)NC(=O)[C@H](CCCC(=O)O)NC(=O)[C@H](C)NC(=O)[C@H](CC(C)C)NC(=O)[C@H](CCCNC(=N)N)NC(=O)[C@H](CCC(=O)O)NC(=O)[C@@H](NC(=O)[C@H](C)NC(=O)[C@@H]1CCCNC(=O)C[C@H](NC(=O)[C@H](CCCNC(=N)N)NC(=O)CC[C@H](NC(=O)CCCCCCCCCCCCCCCCCCC(=O)O)C(=O)O)C(=O)NCC(=O)N[C@@H]([C@@H](C)O)C(=O)N[C@@H](C)C(=O)N[C@@H]([C@@H](C)O)C(=O)N1)[C@@H](C)O)[C@@H](C)O)[C@@H](C)O [Compound 23, [19CD]-isoGlu-RD()GTAT-Orn()-ATERLA-Aad-FLQRTTF-Gly(Me)-A-Ile(Me)-LSSTEVGSNT-Hyp-NH2] ({C20 diacid-γGlu}-RDGTAT[Orn]ATERLA[Aad]FLQRTTF[Sar]A[NMeI]LSSTEVGSNT[Hyp]-NH2; lactam 2-7)"

# Reference: patent US11382956B2, “Amylin analogues” (Zealand Pharma A/S, priority 2016, dated 2022)
